Test results: patent US11857513B2, “Selective inhibitor of exon 20 insertion mutant EGFR” (Taiho Pharmaceutical Co., Ltd., priority 2016, dated 2024)
Read-outs that look alike come from different tables or passages of the source.

Legend:
NIH3T3-EGFRinsASV cells = assay: Antitumor effect, nude mice subcutaneously transplanted with NIH3T3-EGFRinsASV cells; type: in vivo, mouse; details: 20 mg/kg orally once daily, 14 days
Procedure: (§1) Nude mice were subcutaneously transplanted with NIH3T3-EGFRinsASV cells, NIH3T3-EGFRinsSVD cells, or H1975-EGFRinsSVD cells to which human mutant EGFR was introduced. At the point at which the tumor volume of the tumor engrafted in the nude mice grew to about 100 to 200 mm^3, the mice were allocated into groups, 5 to 6 mice for each group, by stratified randomization such that the average tumor volume between the groups was uniform.
(§2) The maximum tolerated dose was determined in accordance with the “Guidelines Involving Experimental Neoplasia Proposals in Mice and Rats” of the National Cancer Institute (NCI), from a humanitarian perspective.
(§3) To compare the changes in growth of tumor over time due to administration of the individual test compounds, a relative tumor volume (which hereinafter also referred to as “RTV”) was calculated based on the tumor volume at the time the mice were divided into groups (which is taken as 1 for the tumor growth ratio), using the following formula. For a toxicity index, the body weight was measured over time, and the average body weight change (which hereinafter also referred to as “BWC (%)”) from the day on which the mice were divided into groups was calculated in accordance with the following formula.
(§4) RTV=(the tumor volume on the day a tumor volume was measured)/(the tumor volume on the day mice were divided into groups) […]

H1975-EGFRinsSVD cells [1] = assay: Antitumor effect, nude mice subcutaneously transplanted with H1975-EGFRinsSVD cells; type: in vivo, mouse; details: 20 mg/kg orally once daily, 14 days
Procedure: as §1, §2, §3, §4

NIH3T3-EGFRinsNPH cells = assay: Antitumor effect, nude mice subcutaneously transplanted with NIH3T3-EGFRinsNPH cells; details: NIH3T3 EGFRinsNPH, 20 mg/kg orally once daily, 10 days
Procedure: as §1, with “with NIH3T3-EGFRinsNPH” for “with NIH3T3-EGFRinsASV cells, NIH3T3-EGFRinsSVD cells, or H1975-EGFRinsSVD”, “cells into” for “cells to”, “groups,” for “groups, 5 to”
as §2
To compare the changes in growth of tumor over time due to administration of the individual test compounds, the tumor volume (which hereinafter also referred to as “TV”) of each mouse was calculated using the following formula. For a toxicity index, the body weight was measured over time, and the body weight change (which hereinafter also referred to as “BWC (%)”) from the day on which the mice were divided into groups was calculated in accordance with the following formula. FIGS. 9 and 10 illustrate changes in the average TV and the average BWC of the mice.
TV (mm^3)=(the major axis x the short axis^2)/2
(§5) BWC (%)=(the body weight measured on body weight measurement day)/(the body weight on the day mice were divided into groups)
The T/C (%) on the final evaluation day was calculated in accordance with the following formula.
T/C (%)=(the tumor volume of the group administered with a test compound)/(the tumor volume of the control group)

[2] = Time of maximum blood concentration after oral administration in nude mice; type: in vivo, mouse; details: single oral administration, around
NIH3T3-EGFRinsSVD cells = assay: Antitumor effect, nude mice subcutaneously transplanted with NIH3T3-EGFRinsSVD cells; type: in vivo, mouse; details: 20 mg/kg orally once daily, 14 days
Procedure: as §1, §2, §3, §4

[3] = tested on: H1975-EGFRinsSVD-Luc cells; assay: Life-extending effect, nude mice transplanted with H1975-EGFRinsSVD-Luc cells in the lung; details: H1975 EGFR insSVD in lung, 20 mg/kg orally once daily
Procedure: H1975-EGFRinsSVD-Luc strain was established by introducing a luciferase into H1975-EGFRinsSVD, which is a human mutant EGFR-introduced cell line. A pJTI (trademark) Fast DEST vector, which was prepared by encoding a Luciferase into NCI-H1975-EGFRinsSVD cells, was introduced into […], together with a pJTI (trademark) PhiC31 integrase expression vector, by electroporation using an Amaxa (trademark) Cell Line Nucleofector (trademark) Kit R, followed by selection using hygromycin B (Nacalai Tesque Inc.).
In evaluation of the life-extending effect, an equivalent amount of Matrigel was added to a suspension of cultured H1975-EGFRinsSVD-Luc cells to prepare a cell suspension, and the cell suspension was transplanted into the right lung of nude mice. On day 6 after transplantation, all of the living mice were administered a luciferin through the tail vein, and allocated into groups, 9 mice for each group, by stratified randomization such that the average luminescence intensity between the groups was uniform. […] The maximum tolerated dose was determined in accordance with the “Guidelines Involving Experimental Neoplasia Proposals in Mice and Rats” of the National Cancer Institute (NCI), from a humanitarian perspective.
To evaluate the life-extending effect, the survival period after transplantation was observed, and the survival time of each mouse was determined. From the survival time, the median survival time (which hereinafter also referred to as “MST”) of each group was calculated, and the survival period-extending effect (i.e., an increase in lifespan, which hereinafter also referred to as “I.L.S. (%)”) was calculated based on MST of the control group and the group administered with a test compound, using the following formula. For a toxicity index, the body weight was measured over time, and the body weight change (which hereinafter also referred to as “BWC (%)”) from the day on which the mice were divided into groups was calculated in accordance with the following formula.
T: MST of the group administered with a test compound
C: MST of the control group
as §5

H1975-EGFRinsSVD cells [4] = assay: Cell growth inhibitory effect on mutant EGFR-expressing human cell line (CellTiter-Glo); type: cell-based; details: Homo sapiens, NCI-H1975, 72 h, read-out: GI50 H1975 EGFRinsSVD
Procedure: (§6) To evaluate the inhibitory activity of compounds against wild-type EGFR and mutant EGFR, the following cells were used: NCI-H1975 cells, which are human pulmonary adenocarcinoma cell lines expressing EGFR with mutation D770_N771insSVD by gene modification (which hereinafter also referred to as “H1975-EGFRinsSVD”); and A431 cells, which are human epithelial cancer cell lines expressing wild-type EGFR. H1975-EGFRinsSVD cells were prepared as follows. […] XTN (trademark) TALENs Site-Specific Nucleases (Transposagen) were introduced into the cells by electroporation using the Amaxa (trademark) Cell Line Nucleofector (trademark) Kit R, and endogenous-EGFR (T790M/L858R)-knockout cells were selected by sequencing.
(§7) To evaluate the cell growth inhibitory effect, individual types of cells were suspended in a medium recommended by ATCC. The cell suspensions were seeded in each well of respective 96-well flat-bottom plates such that the cell count per well was 3,000, and incubated in a 5% CO2-containing incubator at 37° C. for 1 day. […] The cell count at the time incubation started (day 0) and the cell count after incubation (day 3) were measured using a CellTiter-Glo (trademark) Luminescent Cell Viability Assay (Promega Corporation) in accordance with the manufacturer's recommended protocol.
(§8) 1) If T on day 3≥C on day 0: Growth Rate (%)=(T on day 3−C on day 0)/(C on day 3−C on day 0)×100 T: the luminescence intensity of a well to which a test compound was added. C: the luminescence intensity of a well to which the test compound was not added. Day 0: the day on which a test compound was added. Day 3: the day on which evaluation was performed. 2) If T on day 3<C on day 0: Growth Rate (%)=(T on day 3−C on day 0)/(C on day 0)×100 T: the luminescence intensity of a well to which a test compound was added. C: the luminescence intensity of a well to which the test compound was not added. Day 0: the day on which a test compound was added. Day 3: the day on which evaluation was performed.
Additionally, the ratio of GI50between wild-type EGFR and EGFR exon 20 insertion mutation was determined using the following formula.
GI50 (A431): GI50 for wild-type EGFR
GI50 (H1975 EGFRinsSVD): GI50 for EGFR exon 20 insertion mutation

A431 cells = assay: Cell growth inhibitory effect on wild-type EGFR-expressing human cell line (CellTiter-Glo); type: cell-based; details: A-431, 72 h, read-out: GI50 A431
Procedure: as §6, §7, §8

## CN(C)C/C=C/C(=O)Nc1cc2c(Nc3ccc(F)c(Cl)c3)ncnc2cc1O[C@H]1CCOC1 [Afatinib, afatinib, reference compound]
NIH3T3-EGFRinsASV cells
  T/C (%) on the final evaluation day: 46%
H1975-EGFRinsSVD cells [1]
  T/C (%) on the final evaluation day: 79%
NIH3T3-EGFRinsNPH cells
  T/C (%) on the final evaluation day: 59%
[2]
  time at which the maximum blood concentration is achieved: three hours
NIH3T3-EGFRinsSVD cells
  T/C (%) on the final evaluation day: 39%
[3]
  I.L.S. (%) (increase in lifespan): 23%
  MST (median survival time): 54

## C=CC(=O)N[C@H]1CCc2c(-c3cnc4ccccc4c3)c3c(N)ncnc3n2C1 [Comparative Compound, (S)—N-(4-amino-5-(quinolin-3-yl)-6,7,8,9-tetrahydropyrimido[5,4-b]indolizin-8-yl)acrylamide, reference compound]
H1975-EGFRinsSVD cells [4]; H1975-EGFRinsSVD, D770_N771insSVD, 3 days
  GI50: 364 nM
A431 cells; A431, wild-type EGFR, 3 days
  GI50: 543 nM

## C=CC(=O)Nc1cc(Nc2nccc(-c3cn(C)c4ccccc34)n2)c(OC)cc1N(C)CCN(C)C [Osimertinib, osimertinib, reference compound]
H1975-EGFRinsSVD cells [4]
  GI50: 194 nM
A431 cells
  GI50: […]
